# Reference: patent publication US9096560B2, “5-heterocyclylalkyl-3-hydroxy-2-phenylcyclopent-2-enones as herbicides” (Syngenta Limited, priority 2008, dated 2015)
# Columns and labels:
# Assay type in all cases: in vivo
# Lolium perenne (LOLPE) [1] = test: Example B pre-emergence herbicidal test, LOLPE; settings: rate 250 g/ha, evaluated after 13 days, 100=total damage to plant, 0=no damage to plant; for pest or weed control at 250 g/ha: Lolium perenne, 312 h
# Experimental: (§1) Seeds of a variety of test species were sown in standard soil in pots. After cultivation for one day (pre-emergence) or after 8 days cultivation (post-emergence) under controlled conditions in a glasshouse (at 24/16° C., day/night; 14 hours light; 65% humidity), the plants were sprayed with an aqueous spray solution derived from the formulation of the technical active ingredient in acetone/water (50:50) solution containing 0.5% Tween 20 (polyoxyethelyene sorbitan monolaurate, CAS RN 9005-64-5). The test plants were then grown in a glasshouse under controlled conditions in a glasshouse (at 24/16° C., day/night; 14 hours light; 65% humidity) and watered twice daily. After 13 days for pre and post-emergence, the test was evaluated (100=total damage to plant; 0=no damage to plant). Lolium perenne (LOLPE), Alopecurus myosuroides (ALOMY), Echinochloa crus-galli (ECHCG), Avena fatua (AVEFA) Pre-Emergence Activity
# [2] = test system: Alopecurus myosuroides (ALOMY); test: Example B pre-emergence herbicidal test, ALOMY; settings: rate 250 g/ha, evaluated after 13 days, 100=total damage to plant, 0=no damage to plant; for pest or weed control at 250 g/ha: Alopecurus myosuroides, 312 h
# Experimental: as §1
# [3] = test system: Echinochloa crus-galli (ECHCG); test: Example B pre-emergence herbicidal test, ECHCG; settings: rate 250 g/ha, evaluated after 13 days, 100=total damage to plant, 0=no damage to plant; for pest or weed control at 250 g/ha: Echinochloa crus-galli, 312 h
# Experimental: as §1
# Avena fatua (AVEFA) [4] = test: Example B pre-emergence herbicidal test, AVEFA; settings: rate 250 g/ha, evaluated after 13 days, 100=total damage to plant, 0=no damage to plant; for pest or weed control at 250 g/ha: Avena fatua, 312 h
# Experimental: as §1
# Lolium perenne (LOLPE) [5] = test: Example B post-emergence herbicidal test, LOLPE; settings: rate 250 g/ha, evaluated after 13 days; for pest or weed control at 250 g/ha: Lolium perenne, 312 h, scale 0-100, read-out: Post-emergence activity LOLPE (100=total damage to plant; 0=no damage to plant)
# Experimental: as §1, with “Post-Emergence” for “Pre-Emergence”
# [6] = test system: Alopecurus myosuroides (ALOMY); test: Example B post-emergence herbicidal test, ALOMY; settings: rate 250 g/ha, evaluated after 13 days; for pest or weed control at 250 g/ha: Alopecurus myosuroides, 312 h, scale 0-100, read-out: Post-emergence activity ALOMY (100=total damage to plant; 0=no damage to plant)
# Experimental: as §1, with “Post-Emergence” for “Pre-Emergence”
# [7] = test system: Echinochloa crus-galli (ECHCG); test: Example B post-emergence herbicidal test, ECHCG; settings: rate 250 g/ha, evaluated after 13 days; for pest or weed control at 250 g/ha: Echinochloa crus-galli, 312 h, scale 0-100, read-out: Post-emergence activity ECHCG (100=total damage to plant; 0=no damage to plant)
# Experimental: as §1, with “Post-Emergence” for “Pre-Emergence”
# Avena fatua (AVEFA) [8] = test: Example B post-emergence herbicidal test, AVEFA; settings: rate 250 g/ha, evaluated after 13 days; for pest or weed control at 250 g/ha: Avena fatua, 312 h, scale 0-100, read-out: Post-emergence activity AVEFA (100=total damage to plant; 0=no damage to plant)
# Experimental: as §1, with “Post-Emergence” for “Pre-Emergence”
SMILES,pest or weed control at 250 g/ha (Lolium perenne (LOLPE) [1]),pest or weed control at 250 g/ha [2],pest or weed control at 250 g/ha [3],pest or weed control at 250 g/ha (Avena fatua (AVEFA) [4]),pest or weed control at 250 g/ha (Lolium perenne (LOLPE) [5]),pest or weed control at 250 g/ha [6],pest or weed control at 250 g/ha [7],pest or weed control at 250 g/ha (Avena fatua (AVEFA) [8]),Pre-emergence activity LOLPE (damage to plant) (Lolium perenne (LOLPE) [1]),Pre-emergence activity ALOMY (damage to plant) [2],Pre-emergence activity ECHCG (damage to plant) [3],Pre-emergence activity AVEFA (damage to plant) (Avena fatua (AVEFA) [4]),Post-Emergence Activity LOLPE (100=total damage to plant; 0=no damage to plant) (Lolium perenne (LOLPE) [5]; scale 0-100),Post-Emergence Activity ALOMY (100=total damage to plant; 0=no damage to plant) ([6]; scale 0-100),Post-Emergence Activity ECHCG (100=total damage to plant; 0=no damage to plant) ([7]; scale 0-100),Post-Emergence Activity AVEFA (100=total damage to plant; 0=no damage to plant) (Avena fatua (AVEFA) [8]; scale 0-100)
Cc1cc(C)c(C2=C(OC(=O)c3c(C)noc3C)CC(CC3CCN(C(=O)c4c(C)noc4C)C3)C2=O)c(C)c1 (centres unmarked) [Compound P63],70%,50%,70%,40%,80%,90%,70%,90%,,,,,,,,
Cc1cc(C)c(C2=C(OC(=O)c3ccc(Cl)nc3)CC(CC3CCN(C(=O)c4ccc(Cl)nc4)C3)C2=O)c(C)c1 (centres unmarked) [Compound P64],80%,70%,80%,70%,90%,100%,90%,100%,,,,,,,,
CCC(=O)OC1=C(c2c(C)cc(C)cc2C)C(=O)C(CC2CCN(C(=O)CC)CC2)C1 (centres unmarked) [Compound P65],90%,60%,80%,60%,90%,90%,90%,90%,,,,,,,,
Cc1cc(C)c(C2=C(O)CC(CC3CCOCC3)C2=O)c(C)c1 (centres unmarked) [Compound P67],100%,80%,90%,90%,100%,100%,100%,100%,,,,,,,,
Cc1cc(C)c(C2=C(O)CC(CC3CCOCC3)C2=O)c(C)c1 (centres unmarked) [Compound P68],,,,,,,,,100,90,100,90,100,90,100,90
COc1ccc(C(=O)OC2=C(c3c(C)cc(C)cc3C)C(=O)CC2CC2CCOC2)cc1 (centres unmarked) [Compound P71],100%,90%,100%,100%,100%,100%,100%,90%,,,,,,,,
Cc1cc(C)c(C2C(=O)CC(C(O)C3CCOCC3)C2=O)c(C)c1 (centres unmarked) [Compound T3],60%,50%,20%,50%,70%,40%,70%,70%,,,,,,,,
Cc1cc(C)c(C2C(=O)CC(CC3CCS(=O)(=O)CC3)C2=O)c(C)c1 (centres unmarked) [Compound T7],80%,70%,100%,50%,80%,100%,90%,90%,,,,,,,,
Cc1cc(C)c(C2C(=O)C/C(=C\C3CCSCC3)C2=O)c(C)c1 (centres unmarked) [Compound T9],60%,20%,20%,0%,80%,60%,80%,30%,,,,,,,,
Cc1cc(C)c(C2C(=O)C/C(=C\C3CC[S+]([O-])CC3)C2=O)c(C)c1 (centres unmarked) [Compound T11],70%,30%,20%,0%,50%,60%,70%,30%,,,,,,,,
Cc1cc(C)c(C2C(=O)C/C(=C\C3CCN(Cc4ccccc4)CC3)C2=O)c(C)c1 (centres unmarked) [Compound T13],30%,30%,10%,0%,30%,10%,40%,0%,,,,,,,,
CC(=O)N1CCC(/C=C2\CC(=O)C(c3c(C)cc(C)cc3C)C2=O)CC1 (centres unmarked) [Compound T15],100%,70%,100%,100%,100%,100%,100%,100%,,,,,,,,
Cc1cc(C)c(C2C(=O)CC(CC3CCCO3)C2=O)c(C)c1 (centres unmarked) [Compound T18],100%,100%,100%,70%,100%,80%,90%,70%,,,,,,,,
Cc1cc(C)c(C2C(=O)CC(CCC3CCOCC3)C2=O)c(C)c1 (centres unmarked) [Compound T21],100%,100%,90%,70%,90%,90%,80%,90%,,,,,,,,
CON1CCC(CC2CC(=O)C(c3c(C)cc(C)cc3C)C2=O)CC1 (centres unmarked) [Compound T23],100%,100%,100%,100%,100%,90%,100%,100%,,,,,,,,
CC(=O)N1CCC(CC2CC(=O)C(c3c(C)cc(C)cc3C)C2=O)CC1 (centres unmarked) [Compound T24],100%,100%,100%,90%,100%,90%,100%,100%,,,,,,,,
Cc1cc(C)c(C2C(=O)CC(CC3CCC(C)O3)C2=O)c(C)c1 (centres unmarked) [Compound T26],100%,70%,100%,60%,80%,60%,60%,70%,,,,,,,,
Cc1cc(C)c(C2C(=O)CC(C)(C(O)C3CCOCC3)C2=O)c(C)c1 (centres unmarked) [Compound T27],100%,90%,80%,60%,80%,70%,80%,70%,,,,,,,,
Cc1cc(C)c(C2C(=O)C(C)C(CC3CCOC3)C2=O)c(C)c1 (centres unmarked) [Compound T29],100%,70%,90%,50%,90%,70%,80%,60%,,,,,,,,
